The values below come from US11819511B2, “Composition of N-palmitoyl-ethanolamide and Rutin in co-micronized form” (EPITECH GROUP S.P.A, priority 2019, dated 2023).

Molecules are shown by their SMILES.

The subject of test [1] is thoracic aorta rings exposed to peroxynitrite. Briefly: Ex vivo vascular reactivity: contraction of thoracic aorta rings from norepinephrine, after complete ligation of the left carotid artery and 14 days of treatment. The test is classed as in vivo, C57Bl/6 strain mice. Particulars: aorta rings collected day 14, exposed to peroxynitrite 1 mM, per os once a day for 14 days. Here is the method: (§1) (as described by Q.Xu “Mouse models of arteriosclerosis: from arterial injuries to vascular grafts” Am J Pathol. (2014); 165(1):1-10). […] Cuzzocrea et al “Superoxide: a key player in hypertension” FASEB J. […] In particular, the ex vivo measurement of vascular reactivity is carried out with the following procedures: Adult mice of the C57Bl/6 strain weighing 25-30 g are used (Envigo-Italy). The groups of animals on which the evaluations were carried out (10 animals per group) were the following: • Group 1—Animals treated per os with 10 mg/kg of co-micronized palmitoyl-ethanolamide: […] Rutin in a 1:1 ratio, suspended in 1% carboxymethylcellulose solution and with the addition of 0.5 mg/kg of pure hydroxytyrosol in the final solution. At the end of the treatments, the thoracic aortas of the animals are taken and adequately cleaned of the adherent peri-adventitious fat and 3-4 mm rings are cut out. The rings are placed in Krebs solution at pH 7.4 (Krebs solution composition: NaCl 118 mM; KCl 4.7 mM; KH2PO4 1.2 mM; CaCl2 2.5 mM; MgSO4 1.2 mM; NaHCO3 25 mM; glucose 11.7 mM). […] A voltage of 1 g is applied, and the Krebs solution is exchanged every 15 minutes. The aorta rings are exposed to a concentration of peroxynitrile 1 mM.

Test [2] shares this test system. Kind of test: Ex vivo vascular reactivity: endothelium-dependent release of thoracic aorta rings from acetylcholine, after complete ligation of the left carotid artery and 14 days of treatment. The test is classed as in vivo, C57Bl/6 strain mice. Particulars: aorta rings collected day 14, exposed to peroxynitrite 1 mM, per os once a day for 14 days. The method, then: as §1

The conditions of test [3]: Trolox equivalent; cited from earlier work.

Consider `C[C@@H]1O[C@@H](OC[C@H]2O[C@@H](Oc3c(-c4ccc(O)c(O)c4)oc4cc(O)cc(O)c4c3=O)[C@H](O)[C@@H](O)[C@@H]2O)[C@H](O)[C@H](O)[C@H]1O` [Group 3, Rutin], for which the “Contraction (g) from Norepinephrine” value in test [1] (Norepinephrine 100 nM) is 0.20 g; in test [1] (Norepinephrine 1,000 nM), 0.40 g; in test [1] (Norepinephrine 10,000 nM) it was 0.70 g. The “Vascular Tone-% of Pre-Contraction from Acetylcholine” value in test [2] (Acetylcholine 0.1 μM) is 100%; in test [2] (Acetylcholine 1.0 μM), 96%; in test [2] (Acetylcholine 10.0 μM), 81%.

Turning to `CCCCCCCCCCCCCCCC(=O)NCCO` [Group 2, palmitoyl-ethanolamide], the “Contraction (g) from Norepinephrine” value is recorded as 0.20 g in test [1] (Norepinephrine 100 nM), 0.40 g in test [1] (Norepinephrine 1,000 nM) and 0.70 g in test [1] (Norepinephrine 10,000 nM). In addition, the “Vascular Tone-% of Pre-Contraction from Acetylcholine” value in test [2] (Acetylcholine 0.1 μM) is on record as 99%; in test [2] (Acetylcholine 1.0 μM) it was 94%; in test [2] (Acetylcholine 10.0 μM) it was 85%.

As for `OCCc1ccc(O)c(O)c1` [hydroxytyrosol, 1-(2-hydroxy)ethyl-3,4-dihydroxybenzene], in test [3], the “ORAC (Oxygen Radical Absorbance Capacity) index” value is on record as 40,000 μmolTE/g.
